For series [1], the target named is T1, human β3-adrenergic receptor (Homo sapiens, UniProt P13945).
T1 construct: Full length β3 AR clones (402 amino acids) containing the last 6 amino acids of hβ3—AR are prepared; expressed in transfected cells; host or cells: CHO cells
As to the kind of experiment: cAMP response (SPA kit) in CHO cells transfected with human β3 adrenergic receptor. Format: cell-based. The note with it: for EC50: CHO cells expressing human β3-AR, 10^-9 M to 10^-5 M, 30 min at 37° C., cAMP by SPA; for IA(β3): maximal response of compound compared to maximal response of isoproterenol at 10^-5 M, CHO cells, human β3-AR.

Structures are written as SMILES. Like-named read-outs stand apart in the source and are kept apart here.

T1 sequence (P13945 whole entry): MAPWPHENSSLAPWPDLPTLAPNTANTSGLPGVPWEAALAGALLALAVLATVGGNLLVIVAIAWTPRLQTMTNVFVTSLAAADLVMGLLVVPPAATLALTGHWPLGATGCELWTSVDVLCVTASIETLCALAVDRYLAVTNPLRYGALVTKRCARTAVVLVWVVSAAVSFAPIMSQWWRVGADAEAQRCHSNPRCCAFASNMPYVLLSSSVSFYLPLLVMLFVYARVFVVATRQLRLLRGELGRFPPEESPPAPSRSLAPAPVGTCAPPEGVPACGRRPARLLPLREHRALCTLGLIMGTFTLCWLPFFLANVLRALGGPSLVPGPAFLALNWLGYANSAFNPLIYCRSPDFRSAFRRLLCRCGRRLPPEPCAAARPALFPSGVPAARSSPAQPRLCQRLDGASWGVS

The compound `O=C(NCC1CCCC1)N1CCC(Nc2ccc(CCNC[C@H](O)COc3ccc(O)cc3)cc2)CC1` [Example 70, 4-(4-{2-[(2S)-2-Hydroxy-3-(4-hydroxy-phenoxy)-propylamino]-ethyl}-phenylamino)-piperidine-1-carboxylic Acid Cyclopentylmethyl-amide] gave a melting point of 76 to 78 °C. In series [1] (read-out: EC50(β3)), the EC50 came out at 0.106 µM. Further, the “IA(β3)” value in series [1] came to 1.
As to `COc1cc(OCCCOc2ccccc2)ccc1CCNC(=O)N1CCC(Nc2ccc(CCNC[C@H](O)COc3ccc(O)cc3)cc2)CC1` [Example 71, 4-(4-{2-[(2S)-2-Hydroxy-3-(4-hydroU-phenoxy)-propylamino]-ethyl}-phenylamino)-piperidine-1-carboxylic Acid {2-[2-methoxy-4-(3-phenoxy-propoxy)-phenyl]-ethyl}-amide], the melting point fell in the range of 67 to 69 °C. Moreover, the EC50 in series [1] (read-out: EC50(β3)) was determined as 0.14 µM. Besides, the “IA(β3)” value in series [1] amounted to 0.94.
With `CN(C)C(=O)Oc1ccc(CCNC(=O)N2CCC(Nc3ccc(CCNC[C@H](O)COc4ccc(O)cc4)cc3)CC2)cc1` [Example 74, Dimethyl-carbamic Acid 4-(2-{[4-(4-{2-[(2S)-2-hydroxy-3-(4-hydroxy-phenoxy)-propylamino]-ethyl}-phenylamino)-piperidine-1-carbonyl]-amino}-ethyl)-phenyl Ester], the melting point lay within 86 to 88 °C. The EC50 in series [1] (EC50(β3, μM)) was 0.045 µM. The “IA(β3)” value in series [1] is given as 0.88.
The compound `CS(=O)(=O)Nc1cc([C@@H](O)CNCCc2ccc(NC3CCN(C(=O)NCc4cc(F)ccc4F)CC3)cc2)ccc1O` [Example 76, 4-(4-{2-[(2R)-2-Hydroxy-2-(4-hydroxY-3-methanesulfonylamino-phenyl)-ethylamino]-ethyl}-phenylamino)-piperidine-1-carboxylic Acid 2,5-difluoro-benzylamide] gave a melting point of 116 to 118 °C. The “IA(β3)” value in series [1] was 1.
In turn, `O=C(c1cc2cccc([N+](=O)[O-])c2[nH]1)N1CCC(Nc2ccc(CCNC[C@H](O)COc3ccc(O)cc3)cc2)CC1` [Example 95, [4-(4-{2-[(2S)-2-Hydroxy-3-(4-hydroxy-phenoxy)-propylamino]-ethyl}-phenylamino)-piperidin-1-yl]-(7-nitro-1H-indol-2-yl)-methanone] gave a melting point of 100 to 102 °C. In addition, the EC50 in series [1] (read-out: EC50(β3)) stood at 0.066 µM. In series [1], the “IA(β3)” value was 0.9.
Turning to `O=C(c1c[nH]c2ccccc12)N1CCC(Nc2ccc(CCNC[C@H](O)COc3ccc(O)cc3)cc2)CC1` [Example 99, [4-(4-{2-[(2S)-2-Hydroxy-3-(4-hydroxy-phenoxy)-propylamino]-ethyl}-phenylamino)-piperidin-1-yl]-(1H-indol-3-yl)-methanone], the melting point lay in the range of 90 to 92 °C. In addition, the EC50 in series [1] (read-out: EC50(β3)) came to 0.009 µM. In series [1], the “IA(β3)” value was 1.08.
In the case of `CCCCCC(=O)N1CCC(Nc2ccc(CCNC[C@H](O)COc3ccc(O)cc3)cc2)CC1` [Example 103, 1-[4-(4-{2-[(2S)-2-Hydroxy-3-(4-hydroxy-phenoxy)-propylamino]-ethyl}-phenylamino)-piperidin-1-yl]-hexan-1-one], the melting point lay within 57 to 59 °C. Also, the EC50 in series [1] (read-out: EC50(β3)) was 0.074 µM. Moreover, in series [1], the “IA(β3)” value was found to be 0.9.
In turn, `O=C([C@@H]1CCCN1S(=O)(=O)c1ccc(F)cc1)N1CCC(Nc2ccc(CCNC[C@H](O)COc3ccc(O)cc3)cc2)CC1` [Example 104, [(2S)-1-(4-Fluoro-benzenesulfonyl)-pyrrolidin-2-yl]-[4-(4-{2-[(2S)-2-hydroxy-3-(4-hydroxy-phenoxy)-propylamino]-ethyl}-phenylamino)-piperidin-1-yl]-methanone] came in with a melting point of 87 to 89 °C. In series [1] (read-out: EC50(β3)), the EC50 was determined as 0.085 µM. Moreover, the “IA(β3)” value in series [1] was 0.97.
In turn, `Cc1ccsc1C(=O)N1CCC(Sc2ccc(CCNC[C@H](O)COc3ccc(O)cc3)cc2)CC1` [Example 106, [4-(4-{2-[(2S)-2-Hydroxy-3-(4-hydroxy-phenoxy)-propylamino]-ethyl}-phenylsulfanyl)-piperidin-1-yl]-(3-methyl-thiophen-2-yl)-methanone] yielded a melting point of 135 to 144 °C. Besides, in series [1] (read-out: EC50(β3)), the EC50 came out at 0.127 µM. Besides, the “IA(β3)” value in series [1] worked out at 0.79.
`CCCCCCCCS(=O)(=O)N1CCC(Nc2ccc(CCNC[C@H](O)COc3ccc(O)cc3)cc2)CC1` [Example 111]: the melting point was 64 to 68 °C. In addition, the EC50 in series [1] (read-out: EC50(β3)) worked out at 0.125 µM. In series [1], the “IA(β3)” value was found to be 0.78.
`CCCCCCCCNC(=O)Nc1ccc(S(=O)(=O)N2CCC(Nc3ccc(CCNC[C@H](O)c4ccc(O)c(NS(C)(=O)=O)c4)cc3)CC2)cc1` [Example 116, N-(2-Hydroxy-5-{(1R)-1-hydroxy-2-[2-(4-{1-[4-(3-octyl-ureido)-benzenesulfonyl]-piperidin-4-ylamino}-phenyl)-ethylamino]-ethyl}-phenyl)-methanesulfonamide] had a melting point of 134 to 136 °C. Moreover, in series [1] (read-out: EC50(β3)), the half-maximal effective concentration (EC50) came out at 0.001 µM. In addition, the “IA(β3)” value in series [1] was determined as 1.1.
`CS(=O)(=O)Nc1cc([C@@H](O)CNCCc2ccc(NC3CCN(c4ccc(S(=O)(=O)N5CCCCC5)cc4)CC3)cc2)ccc1O` [Example 119]: the melting point was 118 to 120 °C. Besides, the EC50 in series [1] (read-out: EC50(β3)) was determined as 0.008 µM. Also, in series [1], the “IA(β3)” value worked out at 1.03.
`O=C(OCc1ccc(F)cc1)N1CCC(Nc2ccc(CCNC[C@H](O)COc3ccc(O)cc3)cc2)CC1` [Example 121, 4-(4-{2-[(2S)-2-Hydroxy-3-(4-hydroxy-phenoxy)-propylamino]-ethyl}-phenylamino)-piperidine-1-carboxylic acid 4-fluoro-benzyl Ester] yielded a melting point of 60 to 62 °C. Also, the EC50 in series [1] (read-out: EC50(β3)) was 0.09 µM. Moreover, the “IA(β3)” value in series [1] came out at 0.69.
